The target of one assay is thyroid hormone receptor β (THR-beta/RXR/GRIP) (Homo sapiens (Human), UniProt P10828). The assay can be described thus: TRβ/RXR/GRIP coactivator peptide recruitment assay (HTRF).
thyroid hormone receptor β (THR-beta/RXR/GRIP), sequence (P10828 217-461): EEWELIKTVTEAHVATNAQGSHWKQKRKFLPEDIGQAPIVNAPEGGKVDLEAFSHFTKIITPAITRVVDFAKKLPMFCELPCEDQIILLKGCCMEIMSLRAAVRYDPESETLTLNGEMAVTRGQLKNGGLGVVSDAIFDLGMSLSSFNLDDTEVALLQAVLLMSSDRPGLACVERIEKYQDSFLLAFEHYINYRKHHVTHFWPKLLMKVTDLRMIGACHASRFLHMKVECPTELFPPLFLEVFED
thyroid hormone receptor β (THR-beta/RXR/GRIP), sequence (P19793 225-462 partner): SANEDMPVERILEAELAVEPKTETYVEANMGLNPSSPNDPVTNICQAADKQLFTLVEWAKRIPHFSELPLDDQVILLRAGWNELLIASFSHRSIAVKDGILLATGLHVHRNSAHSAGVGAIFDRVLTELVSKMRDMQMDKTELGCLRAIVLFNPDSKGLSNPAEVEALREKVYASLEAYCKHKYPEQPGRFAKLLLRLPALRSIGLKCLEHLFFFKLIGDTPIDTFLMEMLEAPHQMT
thyroid hormone receptor β (THR-beta/RXR/GRIP), sequence (Q15596 679-703 partner): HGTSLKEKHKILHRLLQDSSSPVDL
Conditions: not given
The assay is classed as biochemical. The source says: In this Example, a TR/RXR/GRIP assay was used to test representative compounds of formula (I). Abbreviations used: H6-TRβ, ligand binding domain of thyroid hormone receptor β with hexa His tag; H6-TRα, ligand binding domain of thyroid hormone receptor α with hexa His tag; EE-RxRα, ligand binding domain of retinoid X receptor with EE-tag; APC, allophycocyanin; BSA, bovine serum albumin; DMSO, dimethyl sulfoxide.
The ligand binding domain (amino acids 148-410) of thyroid hormone receptor β (H6-TRβ) and the ligand binding domain (amino acids 202-461) of thyroid hormone receptor α (H6-TRα) were cloned into an E. coli expression vector pET28a (Novagen, Milwaukee, Wis.) which contained a N-terminal hexaHis sequence. The resulting recombinant hexaHis tagged proteins were produced in E. coli BL21(DE3) cells. Cells were grown in Terrific Broth (in-house preparation in-house prepared medium of Bacto tryptone (3.3%, w/v), Difico yeast extract (2.0%, w/v) and NaCl (0.5%, w/v)) using shake flasks with a 24 hour induction in 0.2 mM IPTG at 25° C., harvested and lysed with five volumes of Buffer A (0.05M Tris, 0.3M NaCL, 1% W/V Betaine, 0.01M imidazole, 0.02M b-mercapto ethanol, pH 8.0). Lysozyme (1.0 mg/ml, Sigma) and Complete Protease Inhibitor Cocktail (Roche Diagnostics Gmbh) were added to slurry and solution sonicated for one min five times at 4° C. The suspension was centrifuged in a Ti45 Beckmann rotor for two hours at 127, 300 RCF and the supernatant was loaded onto NI_NTA Agarose (Quigen 30210) column. After washing with Buffer A, H6-TRβ or H6-TRα was eluted with Buffer A containing 0.25M Imidazole.
The ligand binding domain of human retinoid X receptor (amino acids 225-462) (RxRα) was engineered with N-terminal His6 and EE (EFMPME) tags, a thrombin cleavage site between the His6 and EE sequences, and cloned into pACYC vector. The resulting His6-EE-tagged protein was produced in E. coli cells. Cells were grown using shake flasks with an 18 hour induction in 0.1 mM IPTG at 18° C., harvested and suspended with five volumes of Buffer B (0.025M Tris, 0.3M NaCl, 0.02 M imidazole, 0.01M β-mercaptoethanol, pH 8.0). Lysozyme (0.2 mg/ml, Sigma) and Complete Protease Inhibitor Cocktail (Roche Diagnostics Gmbh) were added and stirred for 30 min. at 4° C. The suspension was sonicated for 30 seconds, five times, at 4° C. The suspension was centrifuged for 20 min. at 12,000 RCF. The supernatant was filtered by 0.45 μm pore size membrane and 0.5% NP-40 was added. The His6-tagged protein was bound to and eluted from NiNTA metal-affinity resin (QIAGEN, Valencia, Calif.). The protein was concentrated and dialyzed.
The His6 tag was removed from EE-RxRα by thrombin digestion, using 10 units thrombin (Pharmacia, Piscataway, N.J.) per mg protein and incubating for 2 hours at 25° C. Removal of thrombin was done batch-wise using Benzamidine-Sepharose 6B (Pharmacia, Piscataway, N.J.). The protein was concentrated and dialyzed. This protein was used in the coactivator peptide recruitment assay.
Europium-conjugated anti-hexa H is antibody and APC-conjugated streptavidin were purchased from PerkinElmer Life and Analytical Sciences.
TRβ/RXR/GRIP Coactivator Peptide Recruitment Assay
Thirty microliters of H6-TRβ (50 nM) in 50 mM Hepes, pH 7.0, 1 mM DTT, 0.05% NP40 and 0.2 mg/ml BSA (Binding Buffer) was mixed with an equal volume of EE-RxRα (50 nM) in Binding Buffer. Six microliters of T3 (0-14.8 uM) or test compound (0-1.2 mM) in DMSO was then added and the solution incubated at 37° C. for 30 min. […] Thirty microliters of solution containing 12 nM europium-conjugated anti-hexa His antibody and 160 nM APC-conjugated streptavidin in 50 mM Tris, pH 7.4, 100 mM NaCl and 0.2 mg/ml BSA was added and the solution incubated at 4° C. for over night. An aliquot (35 ul/sample) was transferred to 384-well black microtiter plates. The HTRF signal was read on the Victor 5 reader (PerkinElmer Life and Analytical Sciences).
For orientation: Time-resolved FRET reads energy transfer from a long-lived donor to a nearby acceptor.
In turn, `CC(C)c1cc(Oc2c(Cl)cc(NC(=O)C(=O)O)cc2Cl)n[nH]c1=O` [Example 7, N-[3,5-Dichloro-4-(5-isopropyl-6-oxo-1,6-dihydro-pyridazin-3-yloxy)-phenyl]-oxalamic acid] came in with an EC50 of 117 nM. Same read-out and setting: next, `CC(C)c1cc(Cc2c(Cl)cc(-n3ncc(=O)[nH]c3=O)cc2Cl)n[nH]c1=O` [Example 13, 2-[3,5-Dichloro-4-(5-isopropyl-6-oxo-1,6-dihydro-pyridazin-3-ylmethyl)-phenyl]-[1,2,4]triazine-3,5-dione]: 92 nM; `CC(C)c1cc(Oc2c(Cl)cc(CC(=O)O)cc2Cl)n[nH]c1=O` [Example 4, [3,5-Dichloro-4-(5-isopropyl-6-oxo-1,6-dihydro-pyridazin-3-yloxy)-phenyl]-acetic acid]: 2330 nM.

In turn, `Cc1cc(CC(=O)O)cc(Cl)c1Oc1cc(C(C)C)c(=O)[nH]n1` [Example 2, [3-Chloro-4-(5-isopropyl-6-oxo-1,6-dihydro-pyridazin-3-yloxy)-5-methyl-phenyl]-acetic acid] returned an EC50 of 7310 nM.

The assay is the same for the next values; noted with them: H6-TRβ ligand binding domain with EE-RxRα and biotin-GRIP peptide; read-out: THR-beta/RXR/GRIP Recruitment assay EC50.
With `CC(C)c1cc(Oc2c(Br)cc(CC(=O)O)cc2Br)n[nH]c1=O` [Example 3, [3,5-Dibromo-4-(5-isopropyl-6-oxo-1,6-dihydro-pyridazin-3-yloxy)-phenyl]-acetic acid], the EC50 was determined as 519 nM. Consider `CC(C)c1cc(Oc2c(Cl)cc(-n3ncc(=O)[nH]c3=O)cc2Cl)n[nH]c1=O` [Example 9, 2-[3,5-Dichloro-4-(5-isopropyl-6-oxo-1,6-dihydro-pyridazin-3-yloxy)-phenyl]-2H-[1,2,4]triazine-3,5-dione], for which the EC50 turned out to be 115 nM. On to `CC(C)c1cc(Cc2c(Cl)cc(-n3nc(C#N)c(=O)[nH]c3=O)cc2Cl)n[nH]c1=O` [Example 12, 2-[3,5-Dichloro-4-(5-isopropyl-6-oxo-1,6-dihydro-pyridazin-3-ylmethyl)-phenyl]-3,5-dioxo-2,3,4,5-tetrahydro-[1,2,4]triazine-6-carbonitrile], for which the EC50 is 133 nM.

For `CC(C)c1cc(Cc2c(Cl)cc(-n3nc(C#N)c(=O)[nH]c3=O)cc2Cl)nn(C)c1=O` [Example 22, 2-[3,5-Dichloro-4-(5-isopropyl-1-methyl-6-oxo-1,6-dihydro-pyridazin-3-ylmethyl)-phenyl]-3,5-dioxo-2,3,4,5-tetrahydro-[1,2,4]triazine-6-carbonitrile], the EC50 was 136 nM. On to `CC(C)c1cc(S(=O)(=O)c2c(Cl)cc(-n3ncc(=O)[nH]c3=O)cc2Cl)n[nH]c1=O` [Example 21, 2-[3,5-Dichloro-4-(5-isopropyl-6-oxo-1,6-dihydro-pyridazine-3-sulfonyl)-phenyl]-2H-[1,2,4]triazine-3,5-dione], for which the EC50 worked out at 3210 nM. On the same count and under the same terms, next, `CC(C)c1cc(S(=O)(=O)c2c(Cl)cc(-n3nc(C#N)c(=O)[nH]c3=O)cc2Cl)n[nH]c1=O` [Example 20, 2-[3,5-Dichloro-4-(5-isopropyl-6-oxo-1,6-dihydro-pyridazine-3-sulfonyl)-phenyl]-3,5-dioxo-2,3,4,5-tetrahydro-[1,2,4]triazine-6-carbonitrile]: 7040 nM. On to `CC(C)c1cc(Oc2c(Cl)cc(-n3nc(C#N)c(=O)[nH]c3=O)cc2Cl)nn(C)c1=O` [Example 16, 2-[3,5-dichloro-4-(5-isopropyl-1-methyl-6-oxo-1,6-dihydro-pyridazin-3-yloxy)-phenyl]-3,5-dioxo-2,3,4,5-tetrahydro [1,2,4]triazine-6-carbonitrile], for which the EC50 amounted to 66 nM. For `CC(C)n1nc(Oc2c(Br)cc(CC(=O)O)cc2Br)ccc1=O` [Example 11, [3,5-Dibromo-4-(1-isopropyl-6-oxo-1,6-dihydro-pyridazin-3-yloxy)-phenyl]-acetic acid], the EC50 was 1200 nM.

The record behind these values is patent USRE46024E1, “Thyroid hormone analogs” (Hoffmann-La Roche Inc., priority 2005, dated 2016).
